Tested on: Aβ42 production
Test: Quantification of Aβ peptide in culture of neurons from rat fetus brain (Aβ ELISA)
Format: cell-based
Settings: Neuron, 72 h; rat primary neuronal culture (cerebral cortex, embryonic day 18 Wistar rats); medium collected three days after addition of the compound; Aβx-42 ELISA; read-out: Aβ42 production reducing effect IC50
Method in brief: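 Primary cortical neurons from embryonic day 18 Wistar rats were cultured 4 days, then exposed to compound in Neurobasal/B27 without 2-ME, final DMSO ≤1%. After three days, medium was collected and Aβx-42 measured undiluted by sandwich ELISA.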

Question: Which IC50 does the source give for NC1=N[C@@]2(c3cc(NC(=O)c4ccc(OC(F)F)cn4)ccc3F)CCO[C@H](CF)[C@H]2CS1 (relative stereo) [Example 147, N-[3-((4aS*,5S*,8aS*)-2-amino-5-fluoromethyl-4a,5,7,8-tetrahydro-4H-6-oxa-3-thia-1-azanaphthalen-8a-yl)-4-fluorophenyl]-5-difluoromethoxypyridine-2-carboxamide] here?
Answer: The IC50 was 12 nM.

Question: For NC1=N[C@@]2(c3cc(NC(=O)c4ccc(Cl)cn4)ccc3F)CCO[C@H](CF)[C@H]2CS1 (relative stereo) [Example 148, N-[3-((4aS*,5S*,8aS*)-2-amino-5-fluoromethyl-4a,5,7,8-tetrahydro-4H-6-oxa-3-thia-1-azanaphthalen-8a-yl)-4-fluorophenyl]-5-chloropyridine-2-carboxamide], which IC50 is on record?
Answer: The IC50 was 9 nM.

Question: NC1=N[C@@]2(c3cc(NC(=O)c4ccc(C(F)(F)F)cn4)ccc3F)COC[C@H]2CS1 (relative stereo) [Example 165, N-[3-((4aS*,7aS*)-2-amino-4a,5-dihydro-4H-furo[3,4-d][1,3]thiazin-7a-yl)-4-fluorophenyl]-5-trifluoromethylpyridine-2-carboxamide] was tested. Which IC50 did it give?
Answer: The IC50 was 12 nM.

Question: How did the IC50 turn out when NC1=N[C@@]2(c3cc(NC(=O)c4ccc(Br)cn4)ccc3F)COC[C@H]2CS1 (relative stereo) [Example 166, N-[3-((4aS*,7aS*)-2-amino-4a,5-dihydro-4H-furo[3,4-d][1,3]thiazin-7a-yl)-4-fluorophenyl]-5-bromopyridine-2-carboxamide] was run?
Answer: Its IC50 is 4 nM.

Question: How did the IC50 turn out when NC1=N[C@@]2(c3cc(NC(=O)c4ccc(OC(F)F)cn4)ccc3F)COC[C@H]2CS1 (relative stereo) [Example 167, N-[3-((4aS*,7aS*)-2-amino-4a,5-dihydro-4H-furo[3,4-d][1,3]thiazin-7a-yl)-4-fluorophenyl]-5-difluoromethoxypyridine-2-carboxamide] was run?
Answer: Its IC50 is 6 nM.

Question: For CO[C@@H]1CC[C@H]2CSC(N)=N[C@@]2(c2cc(NC(=O)c3ccc(C#N)cn3)ccc2F)C1 (relative stereo) [Example 202, N-[3-((4aR*,7R*,8aS*)-2-amino-7-methoxy-4,4a,5,6,7,8-hexahydrobenzo[d][1,3]thiazin-8a-yl)-4-fluorophenyl]-5-cyanopyridine-2-carboxamide], which IC50 is on record?
Answer: The IC50 was 3 nM.

Question: With CO[C@H]1CC[C@]2(c3cc(NC(=O)c4ccc(C#N)cn4)ccc3F)N=C(N)SC[C@@H]2C1 (relative stereo) [Example 204, N-[3-((4aR*,6S*,8aS*)-2-amino-6-methoxy-4,4a,5,6,7,8-hexahydrobenzo[d][1,3]thiazin-8a-yl)-4-fluorophenyl]-5-cyanopyridine-2-carboxamide] as the compound, how does the IC50 read?
Answer: The IC50 was 23 nM.

Question: Which IC50 does the source give for CO[C@@H]1CC[C@]2(c3cc(NC(=O)c4ccc(C#N)cn4)ccc3F)N=C(N)SC[C@@H]2C1 (relative stereo) [Example 206, N-[3-((4aR*,6R*,8aS*)-2-amino-6-methoxy-4,4a,5,6,7,8-hexahydrobenzo[d][1,3]thiazin-8a-yl)-4-fluorophenyl]-5-cyanopyridine-2-carboxamide] here?
Answer: Its IC50 is 2 nM.

Question: CO[C@@H]1CC[C@]2(c3cc(NC(=O)c4cnc(C(F)F)cn4)ccc3F)N=C(N)SC[C@@H]2C1 (relative stereo) [Example 207, N-[3-((4aR*,6R*,8aS*)-2-amino-6-methoxy-4,4a,5,6,7,8-hexahydrobenzo[d][1,3]thiazin-8a-yl)-4-fluorophenyl]-5-difluoromethylpyrazine-2-carboxamide] was tested. Which IC50 did it give?
Answer: Its IC50 is 3 nM.

Question: With N#Cc1ccc(C(=O)Nc2ccc(F)c([C@]34CC[C@H](F)C[C@H]3CSC(N)=N4)c2)nc1 (relative stereo) [Example 215, N-[3-((4aR*,6S*,8aS*)-2-amino-6-fluoro-4,4a,5,5,6,7,8-hexahydrobenzo[d][1,3]thiazin-8a-yl)-4-fluorophenyl]-5-cyanopyridine-2-carboxamide] as the compound, how does the IC50 read?
Answer: Its IC50 is 10 nM.

Question: With CO[C@H]1C[C@H]2CSC(N)=N[C@@]2(c2cc(-c3cccnc3F)ccc2F)C1 (relative stereo) [Example 243, (±)-(4aR*,6S*,7aS*)-7a-[2-Fluoro-5-(2-fluoro-pyridin-3-yl)phenyl-6-methoxy-4,4a,5,6,7,7a-hexahydrocyclopenta[d][1,3]thiazin-2-ylamine] as the compound, how does the IC50 read?
Answer: The IC50 was 69 nM.

Question: NC1=N[C@@]2(c3cc(NC(=O)c4ccc(Cl)cn4)ccc3F)CCCC[C@H]2CS1 (single isomer, unassigned) [Example 3, (+)-N-[3-((4aR.*,8aS*)-2-amino-4,4a,5,6,7,8-hexahydrobenzo[d][1,3]thiazin-8a-yl)-4-fluorophenyl]-5-chloropyridine-2-carboxamide] was tested. Which IC50 did it give?
Answer: The IC50 was 9 nM.

Question: Which IC50 does the source give for NC1=N[C@@]2(c3cc(NC(=O)c4cnc(OC(F)F)cn4)ccc3F)CCC[C@H]2CS1 (single isomer, unassigned) [Example 20, N-[3-((4aR*,7aS*)-2-amino-4a,5,6,7-tetrahydro-4,1-cyclopenta[d][1,3]thiazin-7a-yl-4-fluorophenyl]-5-difluoromethoxypyrazine-2-carboxamide] here?
Answer: The IC50 was 5 nM.

Question: N#Cc1ccc(C(=O)Nc2ccc(F)c([C@]34CCC[C@H]3CSC(N)=N4)c2)nc1 (single isomer, unassigned) [Example 22, N-[3-((4aR*,7aS*)-2-amino-4a,5,6,7-tetrahydro-4H-cyclopenta[d][1,3]thiazin-7a-yl)-4-fluorophenyl]-5-cyanopyridine-2-carboxamide] was tested. Which IC50 did it give?
Answer: Its IC50 is 5 nM.

Question: How did the IC50 turn out when NC1=N[C@@]2(c3cc(NC(=O)c4cnc(OCF)cn4)ccc3F)COC[C@H]2CS1 (single isomer, unassigned) [Example 27, N-[3-((7S*,7aS*)-2-amino-4a,5-dihydro-4H-furo[3,4-d][1,3]thiazin-7a-yl)-4-fluorophenyl]-5-fluoromethoxypyrazine-2-carboxamide] was run?
Answer: Its IC50 is 11 nM.

Question: For N#Cc1ccc(C(=O)Nc2ccc(F)c([C@]34CCOC[C@H]3CSC(N)=N4)c2)nc1 (single isomer, unassigned) [Example 28, N-[3-((4aS*,8aS*)-2-amino-4a,7,8-tetrahydro-4H-6-oxa-3-thia-1-azanaphthalen-8a-yl)-4-fluorophenyl]-5-cyanopyridine-2-carboxamide], which IC50 is on record?
Answer: Its IC50 is 12 nM.

Question: With NC1=N[C@@]2(c3cc(NC(=O)c4cnc(Cl)cn4)ccc3F)CCCC[C@H]2CS1 (single isomer, unassigned) [Example 104, N-[3-((4aR*,8aS*)-2-amino-4,4a,5,6,7,8-hexahydrobenzo[d][1,3]thiazin-8a-yl)-4-fluorophenyl]-5-chloropyrazine-2-carboxamide] as the compound, how does the IC50 read?
Answer: Its IC50 is 212 nM.

Question: With NC1=N[C@@]2(c3cc(NC(=O)c4ncc(F)cc4F)ccc3F)CCCC[C@H]2CS1 (single isomer, unassigned) [Example 105, N-[3-((4aR*,8aS*)-2-amino-4,4a,5,6,7,8-hexahydrobenzo[d][1,3]thiazin-8a-yl)-4-fluorophenyl]-3,5-difluoropyridine-2-carboxamide] as the compound, how does the IC50 read?
Answer: The IC50 was 121 nM.

Question: For NC1=N[C@@]2(c3cc(NC(=O)c4ccc(C(F)(F)F)cn4)ccc3F)CCCC[C@H]2CS1 (single isomer, unassigned) [Example 106, N-[3-((4aR*,8aS*)-2-amino-4,4a,5,6,7,8-hexahydrobenzo[d][1,3]thiazin-8a-yl)-4-fluorophenyl]-5-trifluoromethylpyridine-2-carboxamide], which IC50 is on record?
Answer: Its IC50 is 88 nM.

From patent publication US20100317850A1 (priority 2008, published 2010)
